Results: publication PMC3523126 (Journal of the American Chemical Society, 2012)

Tests used:
Calpain-1 [1] = target: T1, Calpain-1 (Homo sapiens, UniProt P07384); conditions: pan-papain family cysteine protease ABP; cited from earlier work
T1 sequence (P07384 1-714): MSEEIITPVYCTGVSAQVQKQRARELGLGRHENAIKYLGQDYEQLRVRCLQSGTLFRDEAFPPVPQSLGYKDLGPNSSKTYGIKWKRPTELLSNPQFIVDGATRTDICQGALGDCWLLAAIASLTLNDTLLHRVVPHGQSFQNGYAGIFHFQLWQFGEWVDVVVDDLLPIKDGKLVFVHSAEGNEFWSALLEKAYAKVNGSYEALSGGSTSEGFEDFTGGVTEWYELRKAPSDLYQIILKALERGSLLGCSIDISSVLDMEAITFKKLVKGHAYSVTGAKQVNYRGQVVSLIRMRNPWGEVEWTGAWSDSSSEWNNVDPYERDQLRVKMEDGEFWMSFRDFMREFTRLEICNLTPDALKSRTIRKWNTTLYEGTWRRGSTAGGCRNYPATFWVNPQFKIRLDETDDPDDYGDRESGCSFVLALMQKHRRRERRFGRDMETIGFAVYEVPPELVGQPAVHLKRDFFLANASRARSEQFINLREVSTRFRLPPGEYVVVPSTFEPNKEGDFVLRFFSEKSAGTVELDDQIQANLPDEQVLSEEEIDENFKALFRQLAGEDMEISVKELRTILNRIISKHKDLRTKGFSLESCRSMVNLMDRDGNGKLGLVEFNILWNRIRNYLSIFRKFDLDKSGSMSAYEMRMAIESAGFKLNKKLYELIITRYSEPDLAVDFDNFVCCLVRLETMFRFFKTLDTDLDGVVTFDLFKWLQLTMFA
T1 sequence (P04632 1-268 partner): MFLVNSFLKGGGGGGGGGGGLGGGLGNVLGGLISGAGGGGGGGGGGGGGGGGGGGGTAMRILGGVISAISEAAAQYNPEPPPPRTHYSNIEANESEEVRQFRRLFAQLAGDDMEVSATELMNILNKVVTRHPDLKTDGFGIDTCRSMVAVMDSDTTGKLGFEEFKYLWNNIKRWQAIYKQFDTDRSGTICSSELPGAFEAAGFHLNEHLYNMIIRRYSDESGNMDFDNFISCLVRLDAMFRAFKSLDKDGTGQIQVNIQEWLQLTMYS

Cathepsin L = Cathepsin L (Homo sapiens, UniProt P07711); assay: Protease fluorescence activity assay, cathepsin L inhibition; format: biochemical; conditions: crosslinked peptide; ratio of Ki values
Calpain-1 [2] = target: T1, Calpain-1; assay: Kinetic analysis of calpain-1 inhibition; format: biochemical; conditions: crosslinked peptide; Michaelis-Menten and Lineweaver-Burke analysis

Cathepsin L, sequence (P07711 114-333, species assumed): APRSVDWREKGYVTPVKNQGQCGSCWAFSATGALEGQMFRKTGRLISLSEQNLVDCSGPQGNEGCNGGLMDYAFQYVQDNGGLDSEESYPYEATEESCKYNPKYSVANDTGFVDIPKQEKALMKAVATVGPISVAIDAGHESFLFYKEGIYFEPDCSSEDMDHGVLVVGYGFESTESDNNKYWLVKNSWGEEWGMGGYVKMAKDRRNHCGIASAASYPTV

Potency against calpain over cathepsin L (Cathepsin L) | Mechanism of calpain-1 inhibition (Calpain-1 [2]) | Structure (SMILES) | Labeling of calpains (positive control) (Calpain-1 [1])
 |  | CCOC(=O)[C@H]1O[C@@H]1C(=O)N[C@@H](CC(C)C)C(=O)N[C@@H](Cc1ccc(O)cc1)C(=O)NCCCCCC(=O)N[C@@H](CCCCNC(=O)CCCC[C@@H]1SC[C@@H]2NC(=O)N[C@@H]21)C(N)=O [DCG-04] | known to label calpains
about four fold more potent | competitive inhibitor | CC[C@H](C)[C@H](NC(C)=O)C(=O)N1CCC[C@H]1C(=O)N1CCC[C@H]1C(=O)N[C@@H](CCCCN)C(=O)N[C@@H](Cc1ccc(O)cc1)C(=O)N[C@H]1CSCc2cccc(c2)CSC[C@@H](C(N)=O)NC(=O)[C@H](CC(C)C)NC(=O)[C@H](CC(C)C)NC(=O)[C@H](CCC(=O)O)NC1=O [Peptide 3c] | 
